Here are results for 27 molecules from patent US8754089B2, “Heterocyclic compounds and their uses” (Amgen Inc., priority 2009, dated 2014).

SMILES strings stand for the structures. pKi: −log10 of the molar value.

The experiment has as its target PI3Kδ (Homo sapiens (Human), UniProt O00329). The experiment is described as follows: PI3Kδ Alphascreen assay. It is filed as biochemical. The protocol: Full length p110 subunits of PI3k α, β and δ, N-terminally labeled with polyHis tag, were coexpressed with p85 with Baculo virus expression vectors in sf9 insect cells. P110/p85 heterodimers were purified by sequential Ni-NTA, Q-HP, Superdex-100 chromatography. Purified α, β and δ isozymes were stored at −20° C. in 20 mM Tris, pH 8, 0.2M NaCl, 50% glycerol, 5 mM DTT, 2 mM Na cholate. […] The y isozyme was purified by sequential Ni-NTA, Superdex-200, Q-HP chromatography. The γ isozyme was stored frozen at −80° C. in NaH2PO4, pH 8, 0.2M NaCl, 1% ethylene glycol, 2 mM β-mercaptoethanol.
A PI3K Alphascreen® assay (PerkinElmer, Waltham, Mass.) was used to measure the activity of a panel of four phosphoinositide 3-kinases: PI3Kα, PI3Kβ, PI3Kγ, and PI3Kδ. Enzyme reaction buffer was prepared using sterile water (Baxter, Deerfield, Ill.) and 50 mM Tris HCl pH 7, 14 mM MgCl2, 2 mM sodium cholate, and 100 mM NaCl. 2 mM DTT was added fresh the day of the experiment. The Alphascreen buffer was made using sterile water and 10 mM Tris HCl pH 7.5, 150 mM NaCl, 0.10% Tween 20, and 30 mM EDTA. 1 mM DTT was added fresh the day of the experiment. Compound source plates used for this assay were 384-well Greiner clear polypropylene plates containing test compounds at 5 mM and diluted 1:2 over 22 concentrations. Columns 23 and 24 contained only DMSO as these wells comprised the positive and negative controls, respectively. Source plates were replicated by transferring 0.5 uL per well into 384-well Optiplates (PerkinElmer, Waltham, Mass.).
Each PI3K isoform was diluted in enzyme reaction buffer to 2× working stocks. […] PI(4,5)P2 (Echelon Biosciences, Salt Lake City, Utah) was diluted to 10 μM and ATP was diluted to 20 μM. This 2× stock was used in the assays for PI3Kα and PI3Kβ. For assay of PI3Kγ and PI3Kδ, PI(4,5)P2 was diluted to 10 μM and ATP was diluted to 8 μM to prepare a similar 2× working stock. Alphascreen reaction solutions were made using beads from the anti-GST Alphascreen kit (PerkinElmer, Waltham, Mass.). Two 4× working stocks of the Alphascreen reagents were made in Alphascreen reaction buffer. In one stock, biotinylated-IP4 (Echelon Biosciences, Salt Lake City, Utah) was diluted to 40 nM and streptavadin-donor beads were diluted to 80 μg/mL. In the second stock, PIP3-binding protein (Echelon Biosciences, Salt Lake City, Utah) was diluted to 40 nM and anti-GST-acceptor beads were diluted to 80 μg/mL.
10 μL/well of the appropriate substrate 2× stock (containing 20 μM ATP for the PI3Kα and β assays and containing 8 μM ATP for the PI3Kγ and δ assays) was then added to Columns 1-24 of all plates. Plates were then incubated at room temperature for 20 minutes. In the dark, 10 μL/well of the donor bead solution was added to columns 1-24 of the plates to quench the enzyme reaction. The plates were incubated at room temperature for 30 minutes. Still in the dark, 10 μL/well of the acceptor bead solution was added to columns 1-24 of the plates. The plates were then incubated in the dark for 1.5 hours. The plates were read on an Envision multimode Plate Reader (PerkinElmer, Waltham, Mass.) using a 680 nm excitation filter and a 520-620 nm emission filter.

Sequence of PI3Kδ (O00329 whole entry): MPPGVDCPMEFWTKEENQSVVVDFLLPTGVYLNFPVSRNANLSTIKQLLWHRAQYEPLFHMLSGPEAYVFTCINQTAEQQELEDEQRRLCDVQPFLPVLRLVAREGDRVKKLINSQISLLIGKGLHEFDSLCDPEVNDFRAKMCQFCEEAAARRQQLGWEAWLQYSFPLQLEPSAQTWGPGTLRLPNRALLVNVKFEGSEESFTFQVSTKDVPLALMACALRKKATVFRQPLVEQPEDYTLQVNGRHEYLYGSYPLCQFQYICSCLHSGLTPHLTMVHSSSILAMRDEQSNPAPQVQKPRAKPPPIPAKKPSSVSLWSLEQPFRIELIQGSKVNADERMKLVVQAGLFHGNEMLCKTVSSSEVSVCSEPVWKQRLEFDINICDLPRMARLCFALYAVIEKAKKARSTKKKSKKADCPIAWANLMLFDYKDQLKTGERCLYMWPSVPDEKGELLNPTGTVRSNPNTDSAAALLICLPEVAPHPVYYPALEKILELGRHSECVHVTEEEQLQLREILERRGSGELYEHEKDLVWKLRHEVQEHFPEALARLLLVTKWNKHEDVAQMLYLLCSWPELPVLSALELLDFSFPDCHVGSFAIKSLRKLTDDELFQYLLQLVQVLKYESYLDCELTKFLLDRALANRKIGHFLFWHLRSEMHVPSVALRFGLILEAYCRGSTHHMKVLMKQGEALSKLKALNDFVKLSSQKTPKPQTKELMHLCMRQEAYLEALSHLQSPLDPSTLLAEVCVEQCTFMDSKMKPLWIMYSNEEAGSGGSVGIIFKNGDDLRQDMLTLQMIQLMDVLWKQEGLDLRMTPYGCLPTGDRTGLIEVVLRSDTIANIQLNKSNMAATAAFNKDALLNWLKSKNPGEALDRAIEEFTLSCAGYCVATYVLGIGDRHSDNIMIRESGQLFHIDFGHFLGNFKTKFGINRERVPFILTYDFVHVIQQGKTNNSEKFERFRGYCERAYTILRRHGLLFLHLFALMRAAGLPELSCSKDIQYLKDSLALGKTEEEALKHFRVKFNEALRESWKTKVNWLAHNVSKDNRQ
Sequence of PI3Kδ (P27986 whole entry partner): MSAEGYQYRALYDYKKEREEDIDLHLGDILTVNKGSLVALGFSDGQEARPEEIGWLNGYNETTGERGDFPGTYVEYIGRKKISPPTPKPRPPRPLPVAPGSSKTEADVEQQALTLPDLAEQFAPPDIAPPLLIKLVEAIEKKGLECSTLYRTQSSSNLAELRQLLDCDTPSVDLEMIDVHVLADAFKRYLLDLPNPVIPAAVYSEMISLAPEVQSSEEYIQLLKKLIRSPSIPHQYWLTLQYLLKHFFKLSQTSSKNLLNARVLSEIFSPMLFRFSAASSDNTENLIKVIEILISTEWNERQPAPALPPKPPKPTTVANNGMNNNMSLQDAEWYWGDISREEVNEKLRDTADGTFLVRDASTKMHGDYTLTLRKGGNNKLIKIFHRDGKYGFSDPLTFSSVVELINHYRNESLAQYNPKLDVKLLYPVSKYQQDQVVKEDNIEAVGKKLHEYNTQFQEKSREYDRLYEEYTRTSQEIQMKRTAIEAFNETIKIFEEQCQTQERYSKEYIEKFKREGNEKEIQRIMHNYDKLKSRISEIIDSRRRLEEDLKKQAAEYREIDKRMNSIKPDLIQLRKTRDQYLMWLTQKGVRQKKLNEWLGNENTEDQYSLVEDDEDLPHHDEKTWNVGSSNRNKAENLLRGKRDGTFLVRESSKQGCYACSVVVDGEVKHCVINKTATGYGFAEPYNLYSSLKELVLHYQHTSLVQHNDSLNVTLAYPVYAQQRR

Broadly, the pKi is −log10 of the Ki, conventionally taken in molar units. `CC(Nc1ncnc(N)c1C#N)c1c(-c2cc(F)cc(F)c2)c(=O)c2cc(F)ccc2n1C` (stereo not drawn) [4-amino-6-((1-(3-(3,5-difluorophenyl)-6-fluoro-1-methyl-4-oxo-1,4-dihydro-2-quinolinyl)ethyl)amino)-5-pyrimidinecarbonitrile] showed a pKi of 7.48. Regarding `Cc1ccnc(-c2c([C@H](C)Nc3ncnc(N)c3C#N)nc3ccccn3c2=O)c1` [4-amino-6-(((1S)-1-(3-(4-methyl-2-pyridinyl)-4-oxo-4H-pyrido[1,2-a]pyrimidin-2-yl)ethyl)amino)-5-pyrimidinecarbonitrile], the pKi is 6.64. Molecule `Cc1cccc2nc([C@@H](C)Nc3ncnc(N)c3C#N)c(-c3ccccn3)c(=O)n12` [4-amino-6-(((1R)-1-(6-methyl-4-oxo-3-(2-pyridinyl)-4H-pyrido[1,2-a]pyrimidin-2-yl)ethyl)amino)-5-pyrimidine-carbonitrile] showed a pKi of 4.97. In turn, `C[C@@H](Nc1ncnc(N)c1C#N)c1nc2ccccn2c(=O)c1-c1cc(F)cc(F)c1` [4-amino-6-(((1R)-1-(3-(3,5-difluorophenyl)-4-oxo-4H-pyrido[1,2-a]pyrimidin-2-yl)ethyl)amino)-5-pyrimidinecarbonitrile] gave a pKi of 3.49. Regarding `CC(Nc1ncnc(N)c1C#N)c1nc2ccccn2c(=O)c1-c1ccccc1S(C)(=O)=O` (racemic) [4-amino-6-((1-(3-(2-(methylsulfonyl)phenyl)-4-oxo-4H-pyrido[1,2-a]pyrimidin-2-yl)ethyl)amino)-5-pyrimidinecarbonitrile], the pKi is 7.28. Compared with the last molecule, the pKi is 3.79 log units higher. `Cc1cccc2nc(CNc3ncnc4[nH]cnc34)c(-c3cccc(F)c3)c(=O)n12` [3-(3-Fluorophenyl)-6-methyl-2-((9H-purin-6-ylamino)methyl)-4H-pyrido[1,2-a]pyrimidin-4-one] showed a pKi of 6.15. The molecule `Cc1cccc2nc(C(C)Nc3ncnc(N)c3C#N)c(-c3ccccc3)c(=O)n12` (racemic) [4-amino-6-((1-(6-methyl-4-oxo-3-phenyl-4H-pyrido[1,2-a]pyrimidin-2-yl)ethyl)amino)-5-pyrimidinecarbonitrile] showed a pKi of 7.90. For `C[C@H](Nc1ncnc(N)c1C#N)c1nc2ccccn2c(=O)c1-c1ccccn1` [4-amino-6-(((1S)-1-(4-oxo-3-(2-pyridinyl)-4H-pyrido[1,2-a]pyrimidin-2-yl)ethyl)amino)-5-pyrimidinecarbonitrile], the negative-log Ki (pKi) is 7.37. As for `Cc1ccccc1-c1c(Cn2cnc3c(N)ncnc32)nc2cccc(C)n2c1=O` [2-((6-amino-9H-purin-9-yl)methyl)-6-methyl-3-(2-methylphenyl)-4H-pyrido[1,2-a]pyrimidin-4-one], the negative logarithm of the Ki (pKi) is 5.20. Molecule `CC(Nc1ncnc(N)c1C#N)c1nc2ccccn2c(=O)c1-c1cc(F)cc(F)c1` (racemic) [4-Amino-6-((1-(3-(3,5-difluorophenyl)-4-oxo-4H-pyrido[1,2-a]pyrimidin-2-yl)ethyl)amino)-5-pyrimidinecarbonitrile] showed a pKi of 7.05. This pKi lies 1.85 log units higher than the previous one. The same measure for `C[C@@H](Nc1ncnc(N)c1C#N)c1nc2ccccn2c(=O)c1-c1ccccn1` [4-amino-6-(((1R)-1-(4-oxo-3-(2-pyridinyl)-4H-pyrido[1,2-a]pyrimidin-2-yl)ethyl)amino)-5-pyrimidinecarbonitrile]: 6.23; for `C[C@@H](Nc1ncnc(N)c1C#N)c1nc2ccccn2c(=O)c1-c1ccccc1S(C)(=O)=O` [4-amino-6-(((1R)-1-(3-(2-(methylsulfonyl)phenyl)-4-oxo-4H-pyrido[1,2-a]pyrimidin-2-yl)ethyl)amino)-5-pyrimidinecarbonitrile]: 4.61. For the molecule `C[C@H](Nc1ncnc(N)c1C#N)c1nc2ccccn2c(=O)c1-c1ccccc1S(C)(=O)=O` [4-amino-6-(((1S)-1-(3-(2-(methylsulfonyl)phenyl)-4-oxo-4H-pyrido[1,2-a]pyrimidin-2-yl)ethyl)amino)-5-pyrimidinecarbonitrile], the negative-log Ki (pKi) was 7.27. As to `Cc1cccc2nc([C@@H](C)Nc3ncnc4[nH]cnc34)c(-c3cccc(F)c3)c(=O)n12` [3-(3-fluorophenyl)-6-methyl-2-((1R)-1-(9H-purin-6-ylamino)ethyl)-4H-pyrido[1,2-a]pyrimidin-4-one], the pKi was 6.10. `Cc1cccc2nc(Cn3nc(I)c4c(N)ncnc43)c(-c3cccc(F)c3)c(=O)n12` [2-((4-amino-3-iodo-1H-pyrazolo[3,4-d]pyrimidin-1-yl)methyl)-3-(3-fluorophenyl)-6-methyl-4H-pyrido[1,2-a]pyrimidin-4-one]: the pKi is 7.07. This pKi lies 0.97 log units higher than the previous one. `Cc1ccnc(-c2c([C@@H](C)Nc3ncnc(N)c3C#N)nc3ccccn3c2=O)c1` [4-amino-6-(((1R)-1-(3-(4-methyl-2-pyridinyl)-4-oxo-4H-pyrido[1,2-a]pyrimidin-2-yl)ethyl)amino)-5-pyrimidinecarbonitrile]: the negative-log Ki (pKi) was 5.03. In the case of `C[C@H](Nc1ncnc(N)c1C#N)c1nc2ccccn2c(=O)c1-c1cc(F)cc(F)c1` [4-amino-6-(((1S)-1-(3-(3,5-difluorophenyl)-4-oxo-4H-pyrido[1,2-a]pyrimidin-2-yl)ethyl)amino)-5-pyrimidinecarbonitrile], the pKi was 7.67. In turn, `Cc1cccc2nc([C@H](C)Nc3ncnc(N)c3C#N)c(-c3ccccc3)c(=O)n12` [4-amino-6-(((1S)-1-(6-methyl-4-oxo-3-phenyl-4H-pyrido[1,2-a]pyrimidin-2-yl)ethyl)amino)-5-pyrimidinecarbonitrile] showed a pKi of 8.30.

As to `C[C@@H](Nc1ncnc(N)c1C#N)c1nc2ccccn2c(=O)c1-c1cccc(F)c1` [4-Amino-6-(((1R)-1-(3-(3-fluorophenyl)-4-oxo-4H-pyrido[1,2-a]pyrimidin-2-yl)ethyl)amino)-5-pyrimidinecarbonitrile], the pKi was 5.73. `CC(Nc1ncnc(N)c1C#N)c1nc2ccccn2c(=O)c1-c1ccccn1` (racemic) [4-amino-6-((1-(4-oxo-3-(2-pyridinyl)-4H-pyrido[1,2-a]pyrimidin-2-yl)ethyl)amino)-5-pyrimidinecarbonitrile] showed a pKi of 6.98. This pKi is 1.25 log units higher than that of the molecule before.

As to `Cc1cccc2nc(C(C)Nc3ncnc(N)c3C#N)c(-c3ccccc3)c(=O)n12` (single isomer, unassigned), the pKi was 5.93. `Cc1ccccc1-c1c(CSc2ncnc3[nH]cnc23)nc2cccc(C)n2c1=O` [6-methyl-3-(2-methylphenyl)-2-((9H-purin-6-yl-sulfanyl)methyl)-4H-pyrido[1,2-a]pyrimidin-4-one] gave a pKi of 5.01. The same measure for `Cc1ccnc(-c2c(C(C)Nc3ncnc(N)c3C#N)nc3ccccn3c2=O)c1` (racemic) [4-amino-6-((1-(3-(4-methyl-2-pyridinyl)-4-oxo-4H-pyrido[1,2-a]pyrimidin-2-yl)ethyl)amino)-5-pyrimidinecarbonitrile]: 6.33. The same measure for `Cc1cccc2nc([C@H](C)Nc3ncnc(N)c3C#N)c(-c3ccccn3)c(=O)n12` [4-amino-6-(((1S)-1-(6-methyl-4-oxo-3-(2-pyridinyl)-4H-pyrido[1,2-a]pyrimidin-2-yl)ethyl)amino)-5-pyrimidinecarbonitrile]: 7.67; for `Cc1cccc2nc(C(C)Nc3ncnc4[nH]cnc34)c(-c3cccc(F)c3)c(=O)n12` (racemic) [3-(3-fluorophenyl)-6-methyl-2-(1-(9H-purin-6-ylamino)ethyl)-4H-pyrido[1,2-a]pyrimidin-4-one]: 7.56; for `C[C@H](Nc1ncnc(N)c1C#N)c1nc2ccccn2c(=O)c1-c1cccc(F)c1` [4-amino-6-(((1S)-1-(3-(3-fluorophenyl)-4-oxo-4H-pyrido[1,2-a]pyrimidin-2-yl)ethyl)amino)-5-pyrimidinecarbonitrile]: 7.80. On to `CC(Nc1ncnc(N)c1C#N)c1nc2ccccn2c(=O)c1-c1cccc(F)c1` (racemic) [4-amino-6-((1-(3-(3-fluorophenyl)-4-oxo-4H-pyrido[1,2-a]pyrimidin-2-yl)ethyl)amino)-5-pyrimidinecarbonitrile], for which the negative-log Ki (pKi) is 7.24.
